Test results from patent publication US12178791B2, “Haloallylamine sulfone derivative inhibitors of lysyl oxidases and uses thereof” (Syntara Limited, priority 2018, dated 2024).
“Also recorded” adds a separate entry of the source. Structures can show the parent of a compound that is named as a salt.

Experiments:
[1] = target: LOXL1 (Homo sapiens (Human), UniProt Q08397); assay: Jump dilution experiment, sustained inhibition of LOXL1; type: biochemical; conditions: jump dilution after 40 min at 37 °C with 10× or 30× IC50; vs non-inhibited controls;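 also: 30× IC50 used only where needed so inhibitor exceeds enzyme concentration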
LOXL1, sequence (Q08397 96-574, species assumed): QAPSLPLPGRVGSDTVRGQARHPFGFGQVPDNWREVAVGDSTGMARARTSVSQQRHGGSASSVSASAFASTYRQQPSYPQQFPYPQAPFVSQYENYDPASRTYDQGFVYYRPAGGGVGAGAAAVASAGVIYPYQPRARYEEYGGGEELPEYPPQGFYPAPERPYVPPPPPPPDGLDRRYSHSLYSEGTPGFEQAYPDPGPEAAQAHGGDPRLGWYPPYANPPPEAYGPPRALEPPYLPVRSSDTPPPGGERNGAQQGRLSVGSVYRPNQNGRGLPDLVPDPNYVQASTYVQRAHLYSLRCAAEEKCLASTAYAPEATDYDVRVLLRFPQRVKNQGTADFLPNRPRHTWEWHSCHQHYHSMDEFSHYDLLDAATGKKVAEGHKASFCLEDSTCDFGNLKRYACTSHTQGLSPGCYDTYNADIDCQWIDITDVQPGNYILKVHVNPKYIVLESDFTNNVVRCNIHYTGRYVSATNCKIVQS
How it was run: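 Enzyme preincubated with inhibitor at 100× the inhibition-study enzyme concentration, then diluted 50× in assay buffer and 2× in Amplex Red–HRP–putrescine mix. Fluorescence read; activity expressed as % signal recovery after a set time versus uninhibited controls.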

[2] = target: LOXL2 (Homo sapiens (Human), UniProt Q9Y4K0); assay: Jump dilution experiment, sustained inhibition of LOXL2; type: biochemical; conditions: jump dilution after 40 min at 37 °C with 10× or 30× IC50; vs non-inhibited controls;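 also: 30× IC50 used only where needed so inhibitor exceeds enzyme concentration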
LOXL2, sequence (Q9Y4K0 26-774): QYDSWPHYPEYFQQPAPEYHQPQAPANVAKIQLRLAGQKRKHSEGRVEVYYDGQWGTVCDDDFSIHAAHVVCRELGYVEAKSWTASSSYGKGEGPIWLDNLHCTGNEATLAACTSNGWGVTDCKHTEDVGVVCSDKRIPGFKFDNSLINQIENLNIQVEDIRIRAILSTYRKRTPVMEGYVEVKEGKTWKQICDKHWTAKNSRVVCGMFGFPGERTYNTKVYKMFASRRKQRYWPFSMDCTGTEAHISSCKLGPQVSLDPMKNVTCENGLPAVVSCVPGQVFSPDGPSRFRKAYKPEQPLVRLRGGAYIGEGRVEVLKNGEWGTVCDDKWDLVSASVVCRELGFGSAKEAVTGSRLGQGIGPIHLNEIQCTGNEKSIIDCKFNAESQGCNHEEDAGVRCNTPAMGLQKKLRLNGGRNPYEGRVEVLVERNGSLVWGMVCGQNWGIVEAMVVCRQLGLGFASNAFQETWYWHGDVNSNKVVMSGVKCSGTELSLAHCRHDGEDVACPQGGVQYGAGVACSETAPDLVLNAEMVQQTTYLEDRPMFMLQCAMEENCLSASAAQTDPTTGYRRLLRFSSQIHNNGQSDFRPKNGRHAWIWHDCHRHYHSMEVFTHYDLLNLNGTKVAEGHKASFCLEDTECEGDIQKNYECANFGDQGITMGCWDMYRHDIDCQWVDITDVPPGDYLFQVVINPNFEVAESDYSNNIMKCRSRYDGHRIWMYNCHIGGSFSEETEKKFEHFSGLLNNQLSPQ
Protocol: Jump Dilution experiment: The assay was developed using a 96 well format and the starting enzyme concentration was set 100 times higher than for the inhibition studies. […] After the incubation, the mixture was diluted 50× in assay buffer, followed by a further 2× dilution in Amplex Red-horseradish peroxidase-putrescine reaction mix (same as per the inhibition studies) prior to the fluorescent measurement. Results were expressed in % recovery of the signal after a specified time by comparison with non-inhibited controls.

[3] = target: Bovine LOX (Bos taurus (Bovine), UniProt P33072); assay: LOX inhibition, Amplex Red oxidation assay; type: biochemical; conditions: 30 min preincubation at 37 °C, putrescine substrate
Bovine LOX, sequence (P33072 170-418): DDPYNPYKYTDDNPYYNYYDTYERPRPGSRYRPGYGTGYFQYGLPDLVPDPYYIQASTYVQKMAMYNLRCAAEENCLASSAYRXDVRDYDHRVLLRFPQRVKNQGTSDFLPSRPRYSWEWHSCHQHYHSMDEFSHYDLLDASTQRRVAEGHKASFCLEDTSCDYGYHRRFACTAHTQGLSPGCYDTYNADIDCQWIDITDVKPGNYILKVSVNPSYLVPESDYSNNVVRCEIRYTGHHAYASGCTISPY
How it was run: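 Bovine LOX in 1.2 M urea, 50 mM sodium borate pH 8.2, with 1 μM mofegiline and 0.5 mM pargyline unless recombinant or purified. The added mix held putrescine at twice KM (20 mM for LOX), 120 μM Amplex Red and 1.5 U/mL HRP.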

[4] = tested on: lysyl oxidase; assay: Target engagement: lysyl oxidase activity, ear slice assay; type: in vivo, Wistar rats
Protocol: The ears, collected right after sacrifice of the rats (treated or untreated with a LOX inhibitor), were snap frozen in dry ice for −80° C. storage. For the assay, 5×5 mm samples were cut (still half-thawed), embedded in agarose gel and cut in cross sections […] thick (vibratome). The thin sections were collected in ice cold PBS containing protease inhibitors, and allowed to rest in the bath for 2-3 hours, to allow soluble contaminants to diffuse away prior to the assay. For a 96 well plate format: three thin slices were collected, gently blotted dry on Kimwipe, and transferred to each well containing 100 μl of assay buffer (1.2 M urea, 50 mM sodium borate buffer, pH 8.2), for a 30 minute pre-incubation at 37° C. in presence of 1 μM mofegiline and 500 μM pargyline. BAPN (500 μM) had been added to all the “low control” wells. A minimum of three replicas were performed for each condition.
After pre-incubation, 100 μl of Amplex Red-horseradish peroxidase (HRP) mix (120 μM Amplex Red, 1.5 U/mL HRP, 20 mM putrescine) were added to all wells, and the plate was read at 37° C. every 2.5 minutes for 13 times, (544 nm excitation and 590 nm emission, on a BMG Clariostar, in orbital, top reading mode). The slope of the kinetic curves, subtracted by the values obtained in the low controls (in presence of BAPN), was considered a measure of the specific lysyl oxidase activity in the sample.
Young male Wistar rats were given a single oral dose (10 or 30 mg/kg) of Compounds 1 or 33 (Table 5 and 6 respectively) and the enzymatic activity was measured in tissues with a high basal activity at this age, in the ear (FIGS. 2a and b; Compound 1 and 33 respectively) and aorta (FIG. 3c; Compound 33 only). The responses were normalised to the activity measured in animals treated with saline (control).

[5] = target: Recombinant human MAO-B (Homo sapiens (Human), UniProt P27338); assay: Inhibition of human recombinant MAO-B; type: biochemical; conditions: benzylamine 100 μM
Recombinant human MAO-B, sequence (P27338 whole entry): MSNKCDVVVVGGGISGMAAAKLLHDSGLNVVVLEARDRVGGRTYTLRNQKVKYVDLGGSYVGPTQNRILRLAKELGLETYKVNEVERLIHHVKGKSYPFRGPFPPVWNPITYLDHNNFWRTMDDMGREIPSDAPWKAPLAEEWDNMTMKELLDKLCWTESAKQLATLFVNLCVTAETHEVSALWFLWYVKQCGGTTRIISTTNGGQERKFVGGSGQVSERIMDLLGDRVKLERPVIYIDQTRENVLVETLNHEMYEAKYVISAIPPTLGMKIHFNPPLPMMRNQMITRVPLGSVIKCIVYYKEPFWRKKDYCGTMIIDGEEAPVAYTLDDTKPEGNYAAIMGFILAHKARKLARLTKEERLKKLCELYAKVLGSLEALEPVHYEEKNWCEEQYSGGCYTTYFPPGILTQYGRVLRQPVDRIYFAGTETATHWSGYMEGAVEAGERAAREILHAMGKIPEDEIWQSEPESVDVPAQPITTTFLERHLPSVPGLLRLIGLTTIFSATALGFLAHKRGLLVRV
Protocol: The specificity of the compounds of this invention was tested by determining their ability to inhibit MAO-B activities in vitro. Recombinant human MAO-B (0.06 mg/mL; Sigma Aldrich) was used as source of MAO-B enzyme activities. The assay was performed in a similar way as for human SSAO/VAP-1 (Example 28) except, the substrate benzylamine was used at 100 μM.

Row | SMILES | LOXL1 - Recovery of activity. (%) [1] | LOXL2 - Recovery of activity. (%) [2] | IC50 [3] | LOX activity in rat ear ([4]; 24 hours after single oral dose at 10 and 30 mg/kg, vs saline control, hydrochloride) | IC50 [5] | lysyl oxidase activity in rat tissue ([4]; single high (30 mg/kg) oral dose) | half-life of recovery of lysyl oxidase activity (ear) ([4]; single oral dose 30 mg/kg)
1 | NC/C=C(\F)CS(=O)(=O)c1ccccc1 [Compound 1, (Z)-3-fluoro-4-(phenylsulfonyl)but-2-en-1-amine hydrochloride] | 2.4% | 9.5% | < 10 µM | dose-dependent block; also recorded: dose dependent, sustained reduction | > 30 µM |  | 
2 | NC/C=C(\F)CS(=O)(=O)c1cccc2cccnc12 [Compound 33, (Z)-3-fluoro-4-(quinolin-8-ylsulfonyl)but-2-en-1-amine dihydrochloride] | 4.5% | 6.9% | < 10 µM |  | > 30 µM | completely abolish | 48 to 72 h
